Results reported in article PMC10275983 (Nature Communications, 2023).

How the values were obtained:
SARS-CoV-2 = conditions: combined with ritonavir; initiated within three days of symptom onset; interim results of Phase II-III studies; cited from earlier work
Description: Small molecule antivirals offer potential advantages over antibody therapeutics. […] During the early months of the pandemic, huge multinational effort was initiated to repurpose already approved antiviral or immunosuppressive drugs. One such drug was remdesivir, a nucleoside analog chain terminator that blocks replication of viral RNA[17].

[1] = test system: SARS-CoV-2/human/Liverpool/REMRQ0001/2020; format: in vivo

SMILES: CC(C)(C)[C@H](NC(=O)C(F)(F)F)C(=O)N1C[C@H]2[C@@H]([C@H]1C(=O)N[C@H](C#N)C[C@@H]1CCNC1=O)C2(C)C [nirmatrelvir]
- reduced hospitalization risk (SARS-CoV-2): 89%

SMILES: CCC(CC)COC(=O)[C@H](C)N[P@](=O)(OC[C@H]1O[C@@](C#N)(c2ccc3c(N)ncnn23)[C@H](O)[C@@H]1O)Oc1ccccc1 [remdesivir]
- inflammatory markers (cytokine and chemokine transcripts) in lung and nasal turbinate ([1]; K18 hACE2 mice N=4, day 4 post-infection, same dosing, qPCR): remained substantially elevated
- infectious virus in the lungs (plaque assay on lung homogenate) ([1]; mouse, in vivo): only partially decreased viraemia
- viral RNA levels in nasal turbinates (qPCR, sub-genomic E gene) ([1]; mouse, in vivo): no significant impact
